Results reported in patent publication US20230158102A1 (priority 2020, published 2023).
Entries after “also recorded” stand apart in the source; their conditions may differ. Read-outs that look alike come from different tables or passages of the source. Numbered stars: 1 amine (or outer) side, 2 acyl side, 3 side chain; on linkers, the order of the positions; unused ones are H or OH. Bridge positions count the residues as written; N and C are the ends. Square brackets hold non-standard residues; d marks the D form. Peptide text beside a SMILES is read from it. * marks the point of attachment. Benzothiophen(2-yl)carbonyl = O=C(c1cc2ccccc2s1)*; X2 = CC[C@H](C)[C@@H](N[*:1])[C@@H](O)CC(=O)[*:2]; NMeY = CN[C@@H](Cc1ccc(O)cc1)C(=O)O; dNMeL = CN[C@H](CC(C)C)C(=O)O; Tos = Cc1ccc(S(=O)(=O)*)cc1; Hiv = CC(C)[C@H](O)C(=O)O; Aib = CC(C)(N)C(=O)O

Experiments:
[1] = tested on: HIV-1 (recombinant virus NL4.3 Luc); assay: microbe, parasite or virus in culture; assay type: cell-based; conditions: for IC50: Human immunodeficiency virus 1, PBMC
[2] = tested on: HCoV-229E; assay type: cell-based
[3] = tested on: Huh-7 cells
[4] = tested on: C-reactive protein; assay: C-reactive protein tests in COVID-19 patients treated with PLD; assay type: in vivo, human
Procedure: The effect of PLD on inflammatory cytokines was also measured for patients 5, 7 and 9 and the results of C-reactive protein tests are shown in FIG. 36.

[5] = tested on: SARS-CoV-2 (COVID-19); assay: Study APLICOV-PC (NCT04382066): efficacy in patients hospitalised for COVID-19; assay type: in vivo, human
[6] = tested on: MT-2 cells
[7] = in vitro; conditions: human
[8] = tested on: HIV-1 (recombinant virus NL4.3 Luc); assay: microbe, parasite or virus in culture; assay type: cell-based
[9] = Huh-7, 50 nM, 5 nM and 0.5 nM, 24 hpi
[10] = interim results, 8 evaluable patients

## CC[C@H](C)[C@H]1NC(=O)[C@@H](NC(=O)[C@@H](CC(C)C)N(C)C(=O)c2cc3ccccc3s2)[C@@H](C)OC(=O)[C@H](Cc2ccc(OC)cc2)N(C)C(=O)[C@@H]2CCCN2C(=O)[C@H](CC(C)C)NC(=O)[C@H](C(C)C)OC(=O)C[C@@H]1O [Compound 10] ({Benzothiophen(2-yl)carbonyl}-[dNMeL]T[X2][Hiv]LP[NMeY](Me); ester 2-C)
[1]
  IC50: 0.86 nM
[2]
  Antiviral activity (fluorescence images): remarkable antiviral properties are seen across all concentrations
[3]; [9]
  Cell growth / viability (fluorescence images): cells remain viable at all concentrations

## CC[C@H](C)[C@H]1NC(=O)[C@@H](NC(=O)C(CC(C)C)N(C)C(=O)[C@@H]2CCCN2C(=O)C(C)=O)[C@@H](C)OC(=O)[C@H](Cc2ccc(OC)cc2)N(C)C(=O)[C@@H]2CCCN2C(=O)[C@H](CC(C)C)NC(=O)[C@@H](C)C(=O)[C@H](C(C)C)OC(=O)C[C@@H]1O (stereo in doubt) [PLD, (−)-(3S,6R,7S,10R,11S,15S,17S,20S,25aS)-11-hydroxy-3-(4-methoxybenzyl)-2,6,17-trimethyl-15-(1-methylethyl)-7-[[(2R)-4-methyl-2-[methyl[[(2S)-1-(2-oxopropanoyl)pyrrolidin-2-yl]carbonyl]amino]pentanoyl]amino]-10-[(1S)-1-methylpropyl]-20-(2-methylpropyl)tetradecahydro-15H-pyrrolo[2,1-f]-[1,15,4,7,10,20]dioxatetrazacyclotricosine-1,4,8,13,16,18,21(17H)-heptone]
[4]; patient 5 (PLD 1.5 mg×3)
  Acute fall of C-reactive protein seen by day: ≤ 2 days
[4]; patients 7 and 9 (PLD 2.0 mg×3)
  Acute fall of C-reactive protein seen by day: ≤ 3 days
[5]; PLD 1.5 mg×3, interim results
  Clinical course (single patient): Acute clinical improvement; also recorded: lack of improvement; also recorded: prevented clinical deterioration; also recorded: Major clinical improvement
[5]; PLD 2.0 mg×3, interim results
  Clinical course (single patient): major clinical improvement
  PCR COVID 19 test at day 7 (single patient): still positive
[5]; ad hoc analysis of the first cohort at 1.5 mg and 2 mg
  Removal of viral burden: complete removal of viral burden was noted in the vast majority of patients
[5]; [10]
  Evaluable patients requiring post PLD specific anti COVID 19 therapy: 2 out of 8
  Evaluable patients with SARS-CoV-2 PCR conversion to negative: 6 out of 8
  Evaluable patients with disease control and major clinical improvements: 6 out of 8
[5]; interim results, 9 patients
  Deaths on study: no deaths on study
  Need for mechanical ventilation or ICU admission: none of the patients required mechanical ventilation or ICU admission
[2]
  Antiviral activity (fluorescence images): remarkable antiviral properties are seen across all concentrations
[3]; [9]
  Cell growth / viability (fluorescence images): cells remain viable at all concentrations

## CC[C@H](C)[C@H]1NC(=O)[C@@H](NC(=O)[C@@H](CC(C)C)NC)[C@@H](C)OC(=O)[C@H](Cc2ccc(OC)cc2)N(C)C(=O)[C@@H]2CCCN2C(=O)[C@H](CC(C)C)NC(=O)C(C)(C)NC(=O)C[C@@H]1O [Compound 3] (H-[dNMeL]T[X2][Aib]LP[NMeY](Me); ester 2-C)
[6]
  Toxic concentrations not reached at: > 57.3 µM
[7]
  CC50: ~27000 nM
[8]; Human immunodeficiency virus 1, MT2, read-out: IC50 (antiviral activity), MT-2 cells infected with NL4.3 Luc, 48 hours
  IC50: 1390 nM
[1]; read-out: IC50 (antiviral activity), preactivated PBMCs infected with NL4.3 Luc, 48 hours
  IC50: 160 nM

## CC[C@H](C)[C@H]1NC(=O)[C@@H](NC(=O)[C@@H](CC(C)C)N(C)C(=O)[C@@H]2CCCN2C(=O)[C@H](C)NC(=O)[C@@H](Cc2ccccc2)NC(=O)OC(C)(C)C)[C@@H](C)OC(=O)[C@H](Cc2ccc(OC)cc2)N(C)C(=O)[C@@H]2CCCN2C(=O)[C@H](CC(C)C)NC(=O)[C@@H](C)C(=O)[C@H](C(C)C)OC(=O)C[C@@H]1O [Compound 9]
[1]; PBMCs, read-out: IC50
  IC50: 0.63 nM
[2]
  Antiviral activity (fluorescence images): remarkable antiviral properties are seen across all concentrations
[3]
  Cell growth / viability (fluorescence images): cells remain viable at all concentrations

## CC[C@H](C)[C@H]1NC(=O)[C@@H](NC(=O)[C@H](CC(C)C)N(C)C(=O)[C@@H]2CCCN2C(=O)C(C)=O)[C@@H](C)OC(=O)[C@H](Cc2ccc(OC)cc2)N(C)C(=O)[C@@H]2CCCN2C(=O)[C@H](CC(C)C)NC(=O)[C@@H](C)C(=O)[C@H](C(C)C)OC(=O)C[C@@H]1O [Compound 8]
[8]; MT-2 cells
  Antiviral activity: showed also antiviral activity
[8]; MT-2 cells and PBMCs, not told apart
  IC50 value, fold lower than the specific concentration of 10 μM: 100 fold
[8]; at 10 μM, MT-2 cells and PBMCs, not told apart
  Specificity of antiviral activity: specific
[8]; at 50 μM, MT-2 cells and PBMCs, not told apart
  Specificity of antiviral activity: non-specific
[1]; PBMCs
  Antiviral activity: showed also antiviral activity

## CC[C@H](C)[C@H]1NC(=O)[C@@H](NC(=O)[C@@H](CC(C)C)N(C)S(=O)(=O)c2ccc(C)cc2)[C@@H](C)OC(=O)[C@H](Cc2ccc(OC)cc2)N(C)C(=O)[C@@H]2CCCN2C(=O)[C@H](CC(C)C)NC(=O)[C@H](C(C)C)OC(=O)C[C@@H]1O [Compound 11] (Tos-[dNMeL]T[X2][Hiv]LP[NMeY](Me); ester 2-C)
[1]
  IC50: 69.4 nM
